From ChEMBL document CHEMBL5523719, “Structure-activity relationship study of new carbazole sulfonamide derivatives as anticancer agents with dual-target mechanism” (Eur J Med Chem, 2024)
Calls of active or inactive are those of the source. No cut-off for these calls is given here.

What was measured:
MDA-MB-231 = assay: Antiproliferation activity against human MDA-MB-231 cells measured after 72 hrs incubation by MTT assay; format: functional, cell-based; settings: MDA-MB-231, 72 h
MIA PaCa-2 = assay: Antiproliferation activity against human MIA PaCa-2 cells measured after 72 hrs incubation by MTT assay; format: functional, cell-based; settings: MIA PaCa-2, 72 h
NCI-H460 = assay: Antiproliferation activity against human NCI-H460 cells measured after 72 hrs incubation by MTT assay; format: functional, cell-based; settings: NCI-H460, 72 h
KB = assay: Antiproliferation activity against human KB cells measured after 72 hrs incubation by MTT assay; format: functional, cell-based
L02 = assay: Antiproliferation activity against human L02 cells measured after 72 hrs incubation by MTT assay; format: functional, cell-based; settings: L02, 72 h
MCF7 [1] = assay: In vivo antitumor activity against human MCF7 cells xenografted in BALB/c mouse assessed as inhibition of tumor growth treated iv every other day for 26 days; format: functional, organism-based; settings: time 26.0 day
MCF7 [2] = assay: In vivo antitumor activity against human MCF7 cells xenografted in BALB/c mouse assessed as decrease in tumor volume treated at 2.5 mg/kg, iv every other day for 26 days relative to control; format: functional; settings: MCF7, 624 h, time 26 day
MCF7 [3] = assay: In vivo antitumor activity against human MCF7 cells xenografted in BALB/c mouse assessed as decrease in tumor volume treated at 5 mg/kg, iv every other day for 26 days relative to control; format: functional; settings: MCF7, 624 h, time 26 day
[4] = Toxicity in BALB/c mouse xenografted with human MCF7 cells assessed as lesions in heart at 5 mg/kg, iv every other day for 26 days by H and E staining based assay; format: organism-based; settings: in vivo, 624 h, time 26 day
[5] = Toxicity in BALB/c mouse xenografted with human MCF7 cells assessed as lesions in liver at 5 mg/kg, iv every other day for 26 days by H and E staining based assay; format: organism-based; settings: in vivo, 624 h, time 26 day
[6] = Toxicity in BALB/c mouse xenografted with human MCF7 cells assessed as lesions in spleen at 5 mg/kg, iv every other day for 26 days by H and E staining based assay; format: organism-based; settings: in vivo, 624 h, time 26 day
[7] = Toxicity in BALB/c mouse xenografted with human MCF7 cells assessed as lesions in lung at 5 mg/kg, iv every other day for 26 days by H and E staining based assay; format: organism-based; settings: in vivo, 624 h, time 26 day
[8] = Toxicity in BALB/c mouse xenografted with human MCF7 cells assessed as lesions in kidney at 5 mg/kg, iv every other day for 26 days by H and E staining based assay; format: organism-based; settings: in vivo, 624 h, time 26 day
MCF7 [9] = assay: In vivo antitumor activity against human MCF7 cells xenografted in BALB/c mouse assessed as inhibition of Ki-67 expression treated at 5 mg/kg, iv every other day for 26 days; format: functional, organism-based; settings: time 26.0 day
MCF7 [10] = assay: In vivo antitumor activity against human MCF7 cells xenografted in BALB/c mouse assessed as increase in cleaved caspase-3 treated at 5 mg/kg, iv every other day for 26 days; format: functional, organism-based; settings: time 26.0 day
MCF7 [11] = assay: In vivo antitumor activity against human MCF7 cells xenografted in BALB/c mouse assessed as decrease in tumor volume treated at 10 mg/kg, iv every other day for 26 days relative to control; format: functional; settings: MCF7, 624 h, time 26 day
[12] = Toxicity in BALB/c mouse xenografted with human MCF7 cells assessed as lesions in heart at 10 mg/kg, iv every other day for 26 days by H and E staining based assay; format: organism-based; settings: in vivo, 624 h, time 26 day
[13] = Toxicity in BALB/c mouse xenografted with human MCF7 cells assessed as lesions in liver at 10 mg/kg, iv every other day for 26 days by H and E staining based assay; format: organism-based; settings: in vivo, 624 h, time 26 day
[14] = Toxicity in BALB/c mouse xenografted with human MCF7 cells assessed as lesions in spleen at 10 mg/kg, iv every other day for 26 days by H and E staining based assay; format: organism-based; settings: in vivo, 624 h, time 26 day
[15] = Toxicity in BALB/c mouse xenografted with human MCF7 cells assessed as lesions in lung at 10 mg/kg, iv every other day for 26 days by H and E staining based assay; format: organism-based; settings: in vivo, 624 h, time 26 day
[16] = Toxicity in BALB/c mouse xenografted with human MCF7 cells assessed as lesions in kidney at 10 mg/kg, iv every other day for 26 days by H and E staining based assay; format: organism-based; settings: in vivo, 624 h, time 26 day
MCF7 [17] = assay: In vivo antitumor activity against human MCF7 cells xenografted in BALB/c mouse assessed as inhibition of Ki-67 expression treated at 10 mg/kg, iv every other day for 26 days; format: functional, organism-based; settings: time 26.0 day
MCF7 [18] = assay: In vivo antitumor activity against human MCF7 cells xenografted in BALB/c mouse assessed as increase in cleaved caspase-3 treated at 10 mg/kg, iv every other day for 26 days; format: functional, organism-based; settings: time 26.0 day

COc1cc(NS(=O)(=O)c2ccc3c(c2)c2ccc(NC(=O)[C@@H](N)C(C)C)cc2n3C)c(OC)cc1Cl.Cl
IC50 (MDA-MB-231): 102 nM
IC50 (MIA PaCa-2): 72.1 nM
IC50 (NCI-H460): 41.6 nM
IC50 (KB): 23 nM
IC50 (L02): 43.2 nM
TGI (MCF7 [1]): Dose-Dependent Effect
inhibition in vivo at 2.5 mg/kg (MCF7 [2]): 38%
inhibition in vivo at 5 mg/kg (MCF7 [3]): 66%
Activity [4]: Non-Toxic
Activity [5]: Non-Toxic
Activity [6]: Non-Toxic
Activity [7]: Non-Toxic
Activity [8]: Non-Toxic
Activity (MCF7 [9]): Active
Activity (MCF7 [10]): Active

COc1cc(NS(=O)(=O)c2ccc3c(c2)c2ccc(OP(=O)([O-])[O-])cc2n3C)c(OC)cc1Cl.[Na+].[Na+]
IC50 (MDA-MB-231): 5.72 nM
IC50 (MIA PaCa-2): 14.4 nM
IC50 (NCI-H460): 18.5 nM
IC50 (KB): 36.1 nM
IC50 (L02): 55.3 nM
TGI (MCF7 [1]): Dose-Dependent Effect
inhibition in vivo at 5 mg/kg (MCF7 [3]): 56%
inhibition in vivo at 10 mg/kg (MCF7 [11]): 73%
Activity [12]: Non-Toxic
Activity [13]: Non-Toxic
Activity [14]: Non-Toxic
Activity [15]: Non-Toxic
Activity [16]: Non-Toxic
Activity (MCF7 [17]): Active
Activity (MCF7 [18]): Active
